# Laboratory results taken from US8598158B2, “Fused tricyclic compounds for the treatment of inflammatory disorders” (Merck Sharp & Dohme Corp., priority 2009, dated 2013).
# pIC50: −log10 of the molar value.
# Target: MK2 kinase (Homo sapiens, UniProt P49137)
# Test: bMK2 IMAP assay
# Conditions: not given
# Sequence of MK2 kinase (P49137 whole entry): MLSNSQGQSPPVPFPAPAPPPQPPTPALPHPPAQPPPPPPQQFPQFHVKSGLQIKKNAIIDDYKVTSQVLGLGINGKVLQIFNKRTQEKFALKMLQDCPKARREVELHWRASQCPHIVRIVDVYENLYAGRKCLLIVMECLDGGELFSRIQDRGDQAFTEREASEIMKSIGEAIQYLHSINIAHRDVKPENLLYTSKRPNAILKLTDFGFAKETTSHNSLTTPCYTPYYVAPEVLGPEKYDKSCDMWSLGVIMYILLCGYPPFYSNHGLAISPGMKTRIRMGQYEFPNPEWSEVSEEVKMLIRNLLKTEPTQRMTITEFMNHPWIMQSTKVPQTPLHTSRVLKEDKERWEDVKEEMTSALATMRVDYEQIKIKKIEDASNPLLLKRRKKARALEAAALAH
row,Compound,pIC50
1,CN1CCN(c2ccc3c(c2)Cc2cc(-c4ccc(Cl)cc4)oc2C(=O)N3Cc2ccccc2-c2cccnc2)CC1 [Compound 6],7.00 to 8.00
2,Nc1ccc(-c2ccccc2CN2C(=O)c3oc(-c4ccc(Cl)cc4)cc3Cc3cc(N4CCNCC4)ccc32)cn1 [Compound 11],7.00 to 8.00
3,COCN1C(=O)c2oc(-c3ccc(C#N)cc3)cc2Cc2cc(N3CCNCC3)ccc21 [Compound 13],8.00 to 9.00
4,O=C1c2oc(-c3ccc(Cl)cc3)cc2Cc2cc(C3CCNCC3)ccc2N1Cc1ccccc1-c1ccccc1 [Compound 16],6.00 to 7.00
5,COc1ccc(-c2ccccc2CN2C(=O)c3oc(-c4ccc(Cl)cc4)cc3Cc3cc(N4CCNCC4)ccc32)cn1 [Compound 17],7.00 to 8.00
6,O=C1Nc2ccc(C3CCNCC3)cc2Cc2cc(-c3ccccc3)oc21 [Compound 18],6.00 to 7.00
7,O=C1c2oc(-c3ccccc3)cc2Cc2cc(C3CCNCC3)ccc2N1Cc1ccccc1-c1ccccc1 [Compound 20],5.00 to 6.00
8,COc1ccncc1-c1ccccc1CN1C(=O)c2oc(-c3ccc(Cl)cc3)cc2Cc2cc(N3CCNCC3)ccc21 [Compound 21],7.00 to 8.00
9,COc1ncc(-c2ccccc2CN2C(=O)c3oc(-c4ccc(Cl)cc4)cc3Cc3cc(N4CCNCC4)ccc32)cn1 [Compound 22],7.00 to 8.00
10,O=C1Nc2ccc(N3CCNCC3)cc2Cc2cc(-c3ccc(Cl)cc3)sc21 [Compound 23],5.00 to 6.00
11,O=C1c2sc(-c3ccc(Cl)cc3)cc2Cc2cc(N3CCNCC3)ccc2N1Cc1ccccn1 [Compound 24],5.00 to 6.00
12,N#Cc1ccc(-c2cc3c(s2)C(=O)Nc2ccc(N4CCNCC4)cc2C3)cc1 [Compound 25],5.00 to 6.00
13,N#Cc1ccc(-c2cc3c(s2)C(=O)N(Cc2ccccn2)c2ccc(N4CCNCC4)cc2C3)cc1 [Compound 26],5.00 to 6.00
14,N#Cc1ccc(-c2cc3c(s2)C(=O)N(Cc2ccccc2-c2cncnc2)c2ccc(N4CCNCC4)cc2C3)cc1 [Compound 27],6.00 to 7.00

# Same assay, conditions: IC50 Value, IMAP fluorescence polarization; 100 μM ATP, 50 pM MK2, 100 nM TAMRA peptide substrate
row,Compound,pIC50
1,O=C1c2oc(-c3ccc(Cl)cc3)cc2Cc2cc(N3CCNCC3)ccc2N1Cc1ccccc1-c1cccnc1 [Compound 5],7.00 to 8.00

# Same assay, conditions: IC50 values, IMAP fluorescence polarization; 100 μM ATP, 50 pM MK2, 100 nM TAMRA peptide substrate
row,Compound,pIC50
1,O=C1c2oc(-c3ccc(Cl)cc3)cc2Cc2cc(N3CCNCC3)ccc2N1Cc1ccccc1-c1cccnc1 [Compound 5],7.42
